Structures can show the parent of a compound that is named as a salt.
Experiments:
[1] = Metabolic stability in human liver microsomes, unbound intrinsic clearance (Cl int/fu mic); type: in vitro ADME; conditions: human, liver microsomes, pH 7.4, human liver microsomes 0.25 mg/mL, 0.5 μM compound, NADPH, read-out: Cl int, mic unb. (h) [l/h/kg] (unbound intrinsic clearance, human)
Method: Samples of the tested compounds (0.5 μM) were preincubated together with human liver microsomes (0.25 mg of microsomal protein/mL) in 0.05 M potassium phosphate buffer of pH 7.4 in microtiter plates at 37° C. for 5 minutes. The reaction was started by adding NADPH (1.0 mM). After 0, 5, 10, 15, 20 and 30 minutes, an aliquot was removed, the reaction was cooled and stopped by adding twice the amount of quench solution consisting of acetonitrile/methanol 1:1, and containing 0.2 μM carbutamide as internal standard. The samples were frozen until analyzed. The remaining concentration of undegraded test substance was determined by liquid chromatography-tandem mass spectrometry (LC-MS/MS). The half-life (t1/2) was determined from the gradient of the ratio of the signal of (test substance/internal standard)/unit time plot, allowing the calculation of the half-life of the test substance, assuming first order kinetics, from the decrease in the concentration of the compound with time. The microsomal clearance ([…]) was calculated as follows: […]=((ln(2)/t 1⁄2)/Microsomal Protein Concentration (mg/ml))*1000, leading to the unit of uL/min/mg. The scaled clearance (mClin_scaled) was calculated as […]_scaled=m CLint*(Microsomal Yield (mg/kg BW))/1000000*60, leading to the units L/h/kg. The Microsomal Yield is defined by the specifics of the used microsomes. Calculations were modified from references: Di, The Society for Biomolecular Screening, 2003, 453-462; Obach, D M D, 1999 vol 27. N 11, 1350-1359. A suspension of 0.25 mg/ml microsomal protein spiked with 0.5 μM of test compound was pipetted on one side of a HTDialysis device (HTDialysis LLC, 37 Ledgewood Drive, Gales Fery CT 06335) separated by a membrane with a MWcut off 12-14 K. 50 mM K-Phosphate buffer (pH 7.4) was added on the other side of the well. After incubation at 37° C. for 4 h while shaking at 150 rpm, aliquots of both sides were taken, quenched with MeOH/ACN 1:1 and 0.2 μM of internal standard and frozen until analysis by LCMSMS Cl int unbound=Cl int/fu mic

5-HT2C receptor = molecular target: T1, 5-HT2C receptor (Homo sapiens, UniProt P28335); test: Human 5-HT2C functional assay (beta-arrestin2 recruitment, U2OS_HTR2C_β-Arrestin cells); type: cell-based; conditions: for EC50: beta-arrestin2 recruitment, U2OS_HTR2C_β-Arrestin cells, 1.5 h incubation, read-out: EC50 5-HT2C (potency in functional assay); for Emax: relative efficacy vs response to 10 μM 5-HT or maximal 5-HT effect (100%)
T1 construct: host or cells: U2OS
T1 sequence (P28335 33-458): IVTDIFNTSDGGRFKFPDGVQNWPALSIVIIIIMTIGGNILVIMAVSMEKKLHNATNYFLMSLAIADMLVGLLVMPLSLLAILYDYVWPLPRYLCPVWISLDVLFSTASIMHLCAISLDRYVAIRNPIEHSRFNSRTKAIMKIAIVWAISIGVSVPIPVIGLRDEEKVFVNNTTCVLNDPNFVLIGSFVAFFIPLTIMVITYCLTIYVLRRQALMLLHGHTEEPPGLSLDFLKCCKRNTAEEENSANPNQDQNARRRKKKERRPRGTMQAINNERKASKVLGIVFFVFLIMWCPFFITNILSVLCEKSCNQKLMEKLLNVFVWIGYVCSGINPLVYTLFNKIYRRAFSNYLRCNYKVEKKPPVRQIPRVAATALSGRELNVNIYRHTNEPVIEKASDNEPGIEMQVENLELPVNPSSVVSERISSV
T1 sequence (P32121 whole entry partner): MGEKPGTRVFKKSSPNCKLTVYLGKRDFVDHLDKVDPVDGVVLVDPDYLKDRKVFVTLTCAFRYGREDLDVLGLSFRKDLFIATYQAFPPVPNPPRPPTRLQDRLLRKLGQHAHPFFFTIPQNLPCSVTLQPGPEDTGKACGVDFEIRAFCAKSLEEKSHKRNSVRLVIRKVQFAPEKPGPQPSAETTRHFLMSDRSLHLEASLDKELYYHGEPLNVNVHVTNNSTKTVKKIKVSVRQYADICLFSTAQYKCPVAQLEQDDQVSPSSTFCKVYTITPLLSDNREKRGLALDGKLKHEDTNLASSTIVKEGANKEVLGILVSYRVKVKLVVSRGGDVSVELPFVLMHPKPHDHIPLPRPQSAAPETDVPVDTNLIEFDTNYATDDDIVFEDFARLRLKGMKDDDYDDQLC
Method: The functional activity of compounds of formula I was assayed by incubation with U2OS_HTR2C_β-Arrestin cells (DiscoverX, 93-0289C3) to induce beta-arrestin2 recruitment to the 5-HT2C receptor. The agonist-induced recruitment and proximity of the receptor and beta-arrestin2 leads to complementation and formation of active β-galactosidase. The enzyme complementation results in enzyme activity, which is measured following the termination of the agonist incubation using DiscoveRx's detection reagent, which contains a chemiluminescent substrate which produces a high intensity signal. Cells were plated and a medium-change to a 1% serum containing medium was performed 24h later. The next day, test compounds were added and incubated for 1.5 h before addition of detection reagent.
The response produced was measured and compared with the response produced by 10 [mu]M 5-HT or the maximal effect induced by 5-HT (defined as 100%) to which it was expressed as a percentage response (relative efficacy). Dose response curves were constructed using Graphpad Prism (Graph Software Inc.) or using in house adapted software using a 4 parameter dose response model with variable slope (fit=(Bottom+(Top-Bottom)/(1+10^∧((Log EC50−x)*HillSlope))res=(y-fit)). Results are compiled in the table below.

COc1nc(NC2CCC(C(F)(F)F)CC2)c(F)cc1CN(C)C(=O)[C@@H]1CCCN1 (mixture of isomers) [Example 157, (2S)—N-[[5-fluoro-2-methoxy-6-[[4-(trifluoromethyl)cyclohexyl]amino]-3-pyridyl]methyl]-N-methyl-pyrrolidine-2-carboxamide; 2,2,2-trifluoroacetic Acid]
CLint scaled at 0.5 μM [1]: 5 to 50 L/h/kg | EC50 (5-HT2C receptor): 200 to 1000 nM | Emax (5-HT2C receptor): 50 to 70%

COc1nc(N2CCC(C(F)(F)F)C2)c(F)cc1CNC(=O)[C@@H]1CCCN1 (stereo partly drawn) [Example 163, (2S)—N-[[5-Fluoro-2-methoxy-6-[3-(trifluoromethyl)pyrrolidin-1-yl]-3-pyridyl]methyl]pyrrolidine-2-carboxamide; 2,2,2-trifluoroacetic Acid]
CLint scaled at 0.5 μM [1]: 5 to 50 L/h/kg | EC50 (5-HT2C receptor): < 20 nM | Emax (5-HT2C receptor): > 70%

COc1nc(OCC2CC(F)(F)C2(F)F)c(F)cc1CNC(=O)[C@@H]1CCCN1 (stereo partly drawn) [Example 47, (2S)—N-[[5-Fluoro-2-methoxy-6-[(2,2,3,3-tetrafluorocyclobutyl)methoxy]-3-pyridyl]methyl]pyrrolidine-2-carboxamide; Succinic Acid]
CLint scaled at 0.5 μM [1]: < 5 L/h/kg | EC50 (5-HT2C receptor): < 20 nM | Emax (5-HT2C receptor): > 70%

COc1nc(OC2CC(F)(F)C2)cnc1CNC(=O)[C@@H]1CCCN1 [Example 107, (2S)—N-[[5-(3,3-Difluorocyclobutoxy)-3-methoxy-pyrazin-2-yl]methyl]pyrrolidine-2-carboxamide; 2,2,2-trifluoroacetic Acid]
CLint scaled at 0.5 μM [1]: < 5 L/h/kg | EC50 (5-HT2C receptor): 200 to 1000 nM | Emax (5-HT2C receptor): > 70%

COc1nc(N2CCC(F)C2)c(F)cc1CNC(=O)[C@@H]1CCCN1 (stereo partly drawn) [Example 162, (2S)—N-[[5-Fluoro-6-(3-Fluoropyrrolidin-1-yl)-2-methoxy-3-pyridyl]methyl]-pyrrolidine-2-carboxamide; 2,2,2-trifluoroacetic Acid]
CLint scaled at 0.5 μM [1]: 5 to 50 L/h/kg | EC50 (5-HT2C receptor): 20 to 200 nM | Emax (5-HT2C receptor): 50 to 70%

COc1nc(OC2CCC(F)(F)CC2)c(F)cc1CNC(=O)C(C)N1CCC1 (stereo not drawn) [Example 43, 2-(Azetidin-1-yl)-N-[[6-(4,4-difluorocyclohexoxy)-5-fluoro-2-methoxy-3-pyridyl]-methyl]propanamide; Succinic Acid]
CLint scaled at 0.5 μM [1]: < 5 L/h/kg | EC50 (5-HT2C receptor): 20 to 200 nM | Emax (5-HT2C receptor): > 70%

COc1nc(NC2CCC2C(F)(F)F)c(F)cc1CNC(=O)[C@@H]1CCCN1 (stereo partly drawn) [Example 186, (2S)—N-[[5-Fluoro-2-methoxy-6-[[2-(trifluoromethyl)cyclobutyl]amino]-3-pyridyl]-methyl]pyrrolidine-2-carboxamide]
CLint scaled at 0.5 μM [1]: < 5 L/h/kg | EC50 (5-HT2C receptor): 20 to 200 nM | Emax (5-HT2C receptor): > 70%

COc1nc(OCC2(C(F)F)CC2)c(F)cc1CNC(=O)[C@@H]1CCCN1C [Example 96, (2S)—N-[[6-[[1-(Difluoromethyl)cyclopropyl]methoxy]-5-fluoro-2-methoxy-3-pyridyl]methyl]-1-methyl-pyrrolidine-2-carboxamide; (2S,3S)-2,3-dihydroxybutanedioic Acid]
CLint scaled at 0.5 μM [1]: < 5 L/h/kg | EC50 (5-HT2C receptor): < 20 nM | Emax (5-HT2C receptor): > 70%

COc1nc(OC2CCC(F)(F)CC2)c(F)cc1CN(C)C(=O)[C@@H]1CCCN1 [Example 114, (2S)—N-[[6-(4,4-Difluorocyclohexoxy)-5-fluoro-2-methoxy-3-pyridyl]methyl]-N-methyl-pyrrolidine-2-carboxamide Hydrochloride]
CLint scaled at 0.5 μM [1]: 5 to 50 L/h/kg | EC50 (5-HT2C receptor): < 20 nM | Emax (5-HT2C receptor): > 70%

COc1nc(O[C@H]2CC[C@H](C(F)(F)F)CC2)c(F)cc1CN(C)C(=O)[C@@H]1CCCN1 [Example 116, (2S)—N-[[5-Fluoro-2-methoxy-6-[trans-4-(trifluoromethyl)cyclohexoxy]-3-pyridyl]methyl]-N-methyl-pyrrolidine-2-carboxamide Hydrochloride]
CLint scaled at 0.5 μM [1]: 5 to 50 L/h/kg | EC50 (5-HT2C receptor): 20 to 200 nM | Emax (5-HT2C receptor): 50 to 70%

COc1nc(OCC2CCC(C(F)(F)F)CC2)c(F)cc1CNC(=O)[C@@H]1CCCN1C (stereo partly drawn) [Example 15, (2S)—N-[[5-Fluoro-2-methoxy-6-[[4-(trifluoromethyl)cyclohexyl]methoxy]-3-pyridyl]methyl]-1-methyl-pyrrolidine-2-carboxamide]
CLint scaled at 0.5 μM [1]: 50 to 500 L/h/kg | EC50 (5-HT2C receptor): < 20 nM | Emax (5-HT2C receptor): > 70%

COc1nc(N2CCC(F)(F)CC2)c(F)cc1CN(C)C(=O)[C@@H]1CCCN1 [Example 165, (2S)—N-[[6-(4,4-Difluoro-1-piperidyl)-5-fluoro-2-methoxy-3-pyridyl]methyl]-N-methyl-pyrrolidine-2-carboxamide; 2,2,2-trifluoroacetic Acid]
CLint scaled at 0.5 μM [1]: < 5 L/h/kg | EC50 (5-HT2C receptor): 20 to 200 nM | Emax (5-HT2C receptor): 50 to 70%

COc1nc(N2CC3C(C2)C3(F)F)c(F)cc1CNC(=O)[C@@H]1CCCN1 (stereo partly drawn) [Example 183, (2S)—N-[[6-(6,6-Difluoro-3-azabicyclo[3.1.0]hexan-3-yl)-5-fluoro-2-methoxy-3-pyridyl]methyl]pyrrolidine-2-carboxamide]
CLint scaled at 0.5 μM [1]: 5 to 50 L/h/kg | EC50 (5-HT2C receptor): 20 to 200 nM | Emax (5-HT2C receptor): > 70%

COc1nc(OC2CCC(F)(F)CC2)c(F)cc1CNC(=O)[C@H]1CCCN1C [Example 52, (2R)—N-[[6-(4,4-Difluorocyclohexoxy)-5-fluoro-2-methoxy-3-pyridyl]methyl]-1-methyl-pyrrolidine-2-carboxamide Hydrochloride]
CLint scaled at 0.5 μM [1]: < 5 L/h/kg | EC50 (5-HT2C receptor): 20 to 200 nM | Emax (5-HT2C receptor): > 70%

COc1nc(OC2CC(F)(F)C2)c(F)cc1CNC(=O)[C@@H]1CCCN1 [Example 44, (2S)—N-[[6-(3,3-Difluorocyclobutoxy)-5-fluoro-2-methoxy-3-pyridyl]methyl]-pyrrolidine-2-carboxamide; Succinic Acid]
CLint scaled at 0.5 μM [1]: < 5 L/h/kg | EC50 (5-HT2C receptor): < 20 nM | Emax (5-HT2C receptor): > 70%

COCCCCc1nc(OC)c(CNC(=O)[C@@H]2CCCN2)cc1F [Example 193, (2S)—N-[[5-Fluoro-2-methoxy-6-(4-methoxybutyl)-3-pyridyl]methyl]pyrrolidine-2-carboxamide]
CLint scaled at 0.5 μM [1]: < 5 L/h/kg | EC50 (5-HT2C receptor): 200 to 1000 nM | Emax (5-HT2C receptor): > 70%

COc1nc(OC[C@@H]2CCC(F)(F)C2)c(F)cc1CNC(=O)[C@H]1CCCN1C [Example 25, (2R)—N-[[6-[[(1R)-3,3-Difluorocyclopentyl]methoxy]-5-fluoro-2-methoxy-3-pyridyl]methyl]-1-methyl-pyrrolidine-2-carboxamide; Fumaric Acid]
CLint scaled at 0.5 μM [1]: < 5 L/h/kg | EC50 (5-HT2C receptor): 20 to 200 nM | Emax (5-HT2C receptor): 50 to 70%

COc1nc(OC2CCC(F)(F)CC2)c(F)cc1CNC(=O)[C@@H]1C[C@@H](C)CN1C [Example 61, (2S,4R)—N-[[6-(4,4-Difluorocyclohexoxy)-5-fluoro-2-methoxy-3-pyridyl]methyl]-1,4-dimethyl-pyrrolidine-2-carboxamide Hydrochloride]
CLint scaled at 0.5 μM [1]: 5 to 50 L/h/kg | EC50 (5-HT2C receptor): 20 to 200 nM | Emax (5-HT2C receptor): > 70%

COc1nc(OC2CCC(F)(F)C2)c(F)cc1CN(C)C(=O)[C@@H]1CCCN1 (stereo partly drawn) [Example 123, (2S)—N-[[6-(3,3-Difluorocyclopentoxy)-5-fluoro-2-methoxy-3-pyridyl]methyl]-N-methyl-pyrrolidine-2-carboxamide Hydrochloride]
EC50 (5-HT2C receptor): < 20 nM | Emax (5-HT2C receptor): 50 to 70%

COc1nc(OCc2cc(F)cc(F)c2)c(F)cc1CNC(=O)[C@@H]1CCCN1 [Example 5, (S)—N-((6-((3,5-Difluorobenzyl)oxy)-5-fluoro-2-methoxypyridin-3-yl)methyl)pyrrolidine-2-carboxamide Hydrochloride]
EC50 (5-HT2C receptor): < 20 nM | Emax (5-HT2C receptor): > 70%

COc1nc(OC2CC3C(C2)C3(F)F)c(F)cc1CNC(=O)C1CCCN1C (stereo not drawn) [Example 64, N-[[6-[(6,6-Difluoro-3-bicyclo[3.1.0]hexanyl)oxy]-5-fluoro-2-methoxy-3-pyridyl]methyl]-1-methyl-pyrrolidine-2-carboxamide Dihydrochloride]
EC50 (5-HT2C receptor): < 20 nM | Emax (5-HT2C receptor): > 70%
